US20190307820A1, “COMPOSITIONS AND METHODS OF USING STAT1/3 INHIBITORS WITH ONCOLYTIC HERPES VIRUS” (priority 2016, published 2019)

Legend:
ICP27 = test: Western blot of ICP27 in HSV-1 infected microglia cells; format: cell-based; details: for ICP27 expression: 1 μM C16, 24 hours
Experimental: (§1) FIG. 12B depicts an electrophoresis gel showing total proteins that were harvested from G2O7 infected microglia cells at 24 hours post treatment with either 1 μM of C16, 1 μM of Bay11, or 100 μM of AG. ICP27, ICP4, and […] expression was measured by western blot assay. U87 and MG co-culture were pretreated with 0.5 μM of C16 for 1 hour.
as §1, with “12C” for “12B”, “HrR3 or KOS” for “G2O7”, “post-treatment” for “post treatment”, “with” for “with either”, “PKR-i (C16).” for “C16, 1 μM of Bay11, or 100 μM of AG.”
Total protein was harvested with sample buffer (125 mM Tris-HCL, 50% Glycerol, […] and 5% 2-mercaptoethanol) and boiled for 5 minutes. Protein samples were subjected to SDS-PAGE (8% gel), transferred to nitrocellulose membranes and blocked in 5% nonfat milk (Bio Rad) in TBS-Tween 20 (TBS-T) for 1 hour at room temperature. The membranes were then incubated with primary antibody against β-actin at 1:1000 (Cell Signaling, Danvers, Mass.) or anti-STAT1 antibody at 1:1000 (Cell Signaling, Danvers, Mass.) or anti-STAT3 antibody at 1:1000 (Cell Signaling, Danvers, Mass.) or anti-phospho STAT1 antibody (Tyr701) at 1:1000 (Cell Signaling, Danvers, Mass.) or anti-phospho STAT3 antibody (Tyr705) at 1:1500 (Cell Signaling, Danvers, Mass.) or anti-phosphor-eIF2a antibody (ser51) at 1:1000 (Cell Signaling, Danvers, Mass.) or anti-ICP27 antibody at 1:1000 (Abcam, Cambridge, Mass.) or anti-ICP4 antibody at 1:750 (Abcam, Cambridge, Mass.) for overnight at 4° C. The membranes were washed the next day with TBS-T three times and incubated with corresponding secondary antibody at 1:3000 (Perkim Elmer, Boston, Mass.), for 1 hour at room temperature. Membranes were washed with TBS-T three times before visualization using ECL reagent (Perkim Elmer, Boston, Mass.) and VersaDoc imaging system (Bio-Rad). Band density was measured by using ImageJ software (NIH, Bethesda, Md.). […]

[1] = system: oHSV-1 (HrR3) in U87 tumors; test: oHSV-1 amplification in subcutaneous U87 tumors in vivo (viral DNA qPCR, immunohistochemistry); set-up: species or system mice
Text: FIGS. 6A and 6B show results of in vivo dose dependent HrR3 replication augmentation by nifuroxazide. Subcutaneously U87 tumor bearing mice were intratumorally injected with single dose of HrR3 virus (n=2; […]) or peritoneally injected indicated concentration of nifuroxazide or both combination. Tumors were harvested at day 10 post treatment (FIG. 6A) Total genomic DNA was extracted from the harvested tumors. Viral DNA particles (ICP27) were detected by qPCR and normalized to β-actin. (FIG. 6B) ICP4 and STAT1 expression were determined by immunohistochemistry assay on harvested tumor tissues. Stained sections were then imaged using confocal microscopy.
In this example, oHSV-1 replication augmentation effect was evaluated in vivo. Subcutaneously implanted U87 tumors were treated with either HrR3 alone or in combination with 50 mg/kg nifuroxazide or 100 mg/kg nifuroxazide. Dose dependent oHSV-1 amplification was determined by measuring viral DNA by qPCR in tumor mass. oHSV-1 augmentation was observed 1.6 fold and 2.2 fold by 50 mg/kg nifuroxazide 100 mg/kg nifuroxazide respectively (FIG. 6A).

[2] = system: CT26, LL2, U87, B16, 4T1 tumor cells; test: Cell survival (MTT) of tumor cell panel with nifuroxazide and/or virus; format: cell-based; details: nifuroxazide 0-100 μM
Text: FIGS. 7A-7L show results of treatment of tumor cells with nifuroxazide and oHSV-1. FIG. 7A-7C show cell survival for tumor cells CT26, LL2 and U87 treated with nifuroxazide or HrR3 or KOS. FIG. 7D-7G show cell survival of tumor cells, U87, CT26, 4T1 and LL2, treated first with nifuroxazide and then HrR3 virus. FIG. 7H-7K show combination index (CI) values for tumor cells treated with varying doses of nifuroxazide or the viruses, HrR3 or KOS, or VG12TR, alone or in combination. FIG. 7L is a table presenting the dose reduction index for a combination of nifuroxazide and HrR3 virus.
In this example, the effect of nifuroxazide and oHSV-1 on tumor cells was evaluated. A variety of cancer cell types were treated with nifuroxazide (from 0-100 μM) or HrR3 virus at a MOI from 0 to 12.5 or KOS virus at a MOI from 1 to 12.5. Cell survival was measured.
Tumor cells were treated with nifuroxazide or medium. Following incubation, virus was added and further incubated for 72 (FIG. 7D) or 48 hrs (FIG. 7E-7G). Cytotoxicity was measured by an MTT assay. […]
If FIG. 7H-7K, cells were treated with varying doses of nifuroxazide or the indicated viruses (HrR3, KOS, or VG12TR) alone or in combination for 48 hrs (7J, 7K) or 72 hrs (7H) Cell viability was measured by a MTT assay and combination index (CI) values were calculated using Chour-Talalay analysis. […]

| SMILES | upregulated expression of ICP27 (ICP27; G207 infected, 1 μM C16, 1 μM Bay11 or 100 μM AG, 24 hours) [fold] | ICP27 expression (ICP27; HrR3 infected BV2 cells) | ICP27 expression (ICP27; KOS infected BV2 cells) | oHSV-1 augmentation (viral DNA by qPCR in tumor mass) ([1]; 50 mg/kg nifuroxazide with HrR3, day 10) [fold] | oHSV-1 augmentation (viral DNA by qPCR in tumor mass) ([1]; 100 mg/kg nifuroxazide with HrR3, day 10) [fold] | oHSV-1 amplification by immunohistochemistry assay ([1]; harvested tumor tissues) | Cell survival [2] |
| --- | --- | --- | --- | --- | --- | --- | --- |
| O=C1Nc2ccc3ncsc3c2/C1=C/c1c[nH]cn1 [C16, 6,8-Dihydro-8-(1H-imidazol-5-ylmethylene)-7H-pyrrolo[2,3-g]benzothiazol-7-one] | 25 | upregulated ICP27 expression | upregulated ICP27 expression | – | – | – | – |
| O=C(N/N=C/c1ccc([N+](=O)[O-])o1)c1ccc(O)cc1 [nifuroxazide, Benzoic acid, 4-hydroxy-, [(5-nitro-2-furanyl)metylene]hydrazide] | – | – | – | 1.6 | 2.2 | oHSV-1 amplification was also confirmed | caused cell mortality in all cell lines at higher doses |
